The source of these data is patent US20240368127A1, “HSD17B13 INHIBITORS AND USES THEREOF” (FL2022-001, Inc., priority 2021, published 2024).

Structures are written as SMILES.

What is called IC50 is the concentration at which inhibition is half-maximal.

The target of this test is T1, Recombinant human HSD17B13 enzyme (Homo sapiens, UniProt Q7Z5P4).
T1 sequence (Q7Z5P4 20-300): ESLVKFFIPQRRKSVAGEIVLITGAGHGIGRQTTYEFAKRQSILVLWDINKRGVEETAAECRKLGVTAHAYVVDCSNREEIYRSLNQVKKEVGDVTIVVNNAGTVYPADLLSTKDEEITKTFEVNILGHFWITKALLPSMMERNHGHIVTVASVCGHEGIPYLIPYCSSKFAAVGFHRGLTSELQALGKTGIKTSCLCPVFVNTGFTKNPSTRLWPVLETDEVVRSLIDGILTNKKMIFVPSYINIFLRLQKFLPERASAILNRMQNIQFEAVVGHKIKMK
As to the kind of experiment: HSD17b13 NAD(P)H-Glo biochemical assay. The conditions noted are these: 50 μM estradiol, 1 mM NAD+, 37° C. for 3 hours; read-out: HSD17β13 IC50. How it is done: Example B-1: HSD17b13 NAD (P) H-Glo Biochemical Assay
Recombinant human HSD17B13 enzyme. Substrate: estradiol (Sigma β-Estradiol E8875), 100 mM in DMSO. Cofactor: NAD+ Grade I free acid (Sigma 10127965001), 20 mM in H2O. Assay buffer final concentration: 20 mM Tris pH7.4 with 0.002% Tween-20 and 0.02% BSA. Assay performed in 384 well solid bottom plate (Corning 3570). Enzymatic activity detected by NAD (P) H-Glo™ Detection System (Promega G9062).
Inhibitor compounds were serially diluted in DMSO and then further diluted in assay buffer to a 10× concentration consisting of 1% DMSO.
HSD17b13 enzyme was diluted in 1× assay buffer to the desired enzyme concentration based on the specific activity of the enzyme lot. 20 μL of diluted enzyme was added to each well along with 2.5 μL of 10× inhibitor solution. Assay plate was incubated at RT for 20 minutes, and then 2.5 μL of a 10× substrate/cofactor mix was added to each well for a final concentration of 50 μM estradiol and 1 mM NAD+. Assay plate was incubated at 37° C. for 3 hours. NAD (P) H-Glo™ Detection System reagents were prepared according to manufacturer's specifications, and 25 μL was added to each well. After incubating for 1 hour at RT, luminescence was measured.
As to `CS(=O)(=O)N1CCN(c2ccc3c(c2)c(N)nn3-c2cc(C(F)(F)F)c(F)c(O)c2F)[C@H](Cc2ccccc2)C1` [Compound 2.12, (R)-3-(3-Amino-5-(2-benzyl-4-(methylsulfonyl)piperazin-1-yl)-1H-indazol-1-yl)-2,6-difluoro-5-(trifluoromethyl)phenol], the IC50 is not above 100 nM. For the compound `Cc1nn(-c2cc(C(F)(F)F)cc(O)c2F)c2ccc(N3CCN(S(C)(=O)=O)C[C@H]3Cc3ccccc3)cc12` [Compound 2.28, (R)-3-(5-(2-Benzyl-4-(methylsulfonyl)piperazin-1-yl)-3-methyl-1H-indazol-1-yl)-2-fluoro-5-(trifluoromethyl)phenol], the concentration for half-maximal inhibition (IC50) is not above 100 nM. Next, `COC(=O)N1CCN(c2ncc3c(-c4cc(C(F)(F)F)c(F)c(O)c4F)nn(C)c3n2)[C@H](Cc2ccccc2)C1` [Compound 6, Methyl (R)-3-benzyl-4-(3-(2,4-difluoro-3-hydroxy-5-(trifluoromethyl)phenyl)-1-methyl-1H-pyrazolo[3,4-d]pyrimidin-6-yl)piperazine-1-carboxylate]: not above 100 nM; `Cn1nc(-c2cc(C(F)(F)F)c(F)c(O)c2F)c2cnc(N3CCOCC3CN3CCCC3)nc21` (stereo not drawn) [Compound 5.29, 2,6-Difluoro-3-(1-methyl-6-(3-(pyrrolidin-1-ylmethyl)morpholino)-1H-pyrazolo[3,4-d]pyrimidin-3-yl)-5-(trifluoromethyl)phenol]: 100 to 1000 nM; `Cc1c(C(F)(F)F)cc(-c2nn(C)c3nc(N4CCN(S(C)(=O)=O)C[C@H]4Cc4ccccc4)ncc23)c(F)c1O` [Compound 11.19, (R)-3-(6-(2-Benzyl-4-(methylsulfonyl)piperazin-1-yl)-1-methyl-1H-pyrazolo[3,4-d]pyrimidin-3-yl)-2-fluoro-6-methyl-5-(trifluoromethyl)phenol]: not above 100 nM.

Regarding `CN(C)C(=O)N1CCN(c2ncc3c(-c4cc(C(F)(F)F)c(F)c(O)c4F)nn(C)c3n2)[C@H](Cc2ccccc2)C1` [Compound 6.01, (R)-3-Benzyl-4-(3-(2,4-difluoro-3-hydroxy-5-(trifluoromethyl)phenyl)-1-methyl-1H-pyrazolo[3,4-d]pyrimidin-6-yl)-N,N-dimethylpiperazine-1-carboxamide], the IC50 is not above 100 nM. In the case of `CS(=O)(=O)N1CCN(c2cc3c(Cl)nn(-c4cc(C(F)(F)F)c(Cl)c(O)c4F)c3cn2)[C@H](Cc2ccccc2)C1` [Compound 2.22, (R)-3-(5-(2-Benzyl-4-(methylsulfonyl)piperazin-1-yl)-3-chloro-1H-pyrazolo[3,4-c]pyridin-1-yl)-6-chloro-2-fluoro-5-(trifluoromethyl)phenol] it was not above 100 nM. Turning to `Cn1nc(-c2cc(C(F)(F)F)c(F)c(O)c2F)c2cnc(N3CCN(S(C)(=O)=O)C[C@H]3Cc3ccccc3)nc21` [Compound 5, (R)-3-(6-(2-Benzyl-4-(methylsulfonyl)piperazin-1-yl)-1-methyl-1H-pyrazolo[3,4-d]pyrimidin-3-yl)-2,6-difluoro-5-(trifluoromethyl)phenol], the IC50 is not above 100 nM. In the case of `Cn1nc(-c2cc(C(F)(F)F)c(F)c(O)c2F)c2cnc(N3CCOCC3Cc3ccccc3)nc21` (stereo not drawn) [Compound 5.03, 3-(6-(3-Benzylmorpholino)-1-methyl-1H-pyrazolo[3,4-d]pyrimidin-3-yl)-2,6-difluoro-5-(trifluoromethyl)phenol] it was not above 100 nM; in that of `Cn1nc(-c2cc(C(F)(F)F)c(F)c(O)c2F)c2cnc(N3CCCCC3Cc3ccccc3)nc21` (stereo not drawn) [Compound 5.32, 3-(6-(2-Benzylpiperidin-1-yl)-1-methyl-1H-pyrazolo[3,4-d]pyrimidin-3-yl)-2,6-difluoro-5-(trifluoromethyl)phenol], not above 100 nM. Next, `Cc1nn(-c2cc(C(F)(F)F)c(Cl)c(O)c2F)c2cnc(N3CCN(S(C)(=O)=O)C[C@H]3Cc3ccccc3)cc12` [Compound 2.11, (R)-3-(5-(2-Benzyl-4-(methylsulfonyl)piperazin-1-yl)-3-methyl-1H-pyrazolo[3,4-c]pyridin-1-yl)-6-chloro-2-fluoro-5-(trifluoromethyl)phenol]: not above 100 nM; `CS(=O)(=O)N1CCN(c2ccc3c(c2)c(Cl)nn3-c2cc(C(F)(F)F)c(F)c(O)c2F)[C@H](Cc2ccccc2)C1` [Compound 2.06, (R)-3-(5-(2-Benzyl-4-(methylsulfonyl)piperazin-1-yl)-3-chloro-1H-indazol-1-yl)-2,6-difluoro-5-(trifluoromethyl)phenol]: not above 100 nM; `COC(=O)N1CCN(c2ncc3c(-c4cc(C(F)(F)F)c(F)c(O)c4F)nn(C)c3n2)C[C@@H]1Cc1ccccc1` [Compound 6.08, Methyl (S)-2-benzyl-4-(3-(2,4-difluoro-3-hydroxy-5-(trifluoromethyl)phenyl)-1-methyl-1H-pyrazolo[3,4-d]pyrimidin-6-yl)piperazine-1-carboxylate]: not above 100 nM. Take `Cn1nc(-c2cc(C(F)(F)F)c(F)c(O)c2F)c2cnc(N3CCN(S(C)(=O)=O)CC3CC3CCC3)nc21` (stereo not drawn) [Compound 11.27, 3-(6-(2-(Cyclobutylmethyl)-4-(methylsulfonyl)piperazin-1-yl)-1-methyl-1H-pyrazolo[3,4-d]pyrimidin-3-yl)-2,6-difluoro-5-(trifluoromethyl)phenol]: the IC50 was not above 100 nM. In the case of `Cn1nc(-c2cc(C(F)(F)F)c(F)c(O)c2F)c2cnc(N3CCO[C@@H](Cc4cccc(C(N)=O)c4)C3)nc21` [Compound 12.05, (S)-3-((4-(3-(2,4-Difluoro-3-hydroxy-5-(trifluoromethyl)phenyl)-1-methyl-1H-pyrazolo[3,4-d]pyrimidin-6-yl)morpholin-2-yl)methyl)benzamide] it was not above 100 nM; in that of `CCN1CCN(c2ncc3c(n2)c(C)nn3-c2cc(C(F)(F)F)c(F)c(O)c2F)[C@H](Cc2ccccc2)C1` [Compound 2.32, (R)-3-(5-(2-Benzyl-4-ethylpiperazin-1-yl)-3-methyl-1H-pyrazolo[4,3-d]pyrimidin-1-yl)-2,6-difluoro-5-(trifluoromethyl)phenol], not above 100 nM. For `Cc1nn(-c2cc(C(F)(F)F)c(F)c(O)c2F)c2cnc(N3CCN(S(C)(=O)=O)[C@@H](Cc4ccccc4)C3)cc12` [Compound 2.10, (S)-3-(5-(3-Benzyl-4-(methylsulfonyl)piperazin-1-yl)-3-methyl-1H-pyrazolo[3,4-c]pyridin-1-yl)-2,6-difluoro-5-(trifluoromethyl)phenol], the IC50 is not above 100 nM. In the case of `CN1CCN(c2ncc3c(-c4cc(C(F)(F)F)c(F)c(O)c4F)nn(C)c3n2)C(Cc2ccccc2)C1` (stereo not drawn) [Compound 5.12, 3-(6-(2-Benzyl-4-methylpiperazin-1-yl)-1-methyl-1H-pyrazolo[3,4-d]pyrimidin-3-yl)-2,6-difluoro-5-(trifluoromethyl)phenol], the IC50 was not above 100 nM. Next, `CN(C)c1nn(-c2cc(C(F)(F)F)c(F)c(O)c2F)c2ccc(N3CCN(S(C)(=O)=O)C[C@H]3Cc3ccccc3)cc12` [Compound 2.25, (R)-3-(5-(2-Benzyl-4-(methylsulfonyl)piperazin-1-yl)-3-(dimethylamino)-1H-indazol-1-yl)-2,6-difluoro-5-(trifluoromethyl)phenol]: not above 100 nM. Next, `Oc1c(F)cc2nnn(-c3ccc(N4CCO[C@@H](Cc5ccccc5)C4)cc3)c2c1F` [Compound 1.04, (S)-1-(4-(2-Benzylmorpholino)phenyl)-5,7-difluoro-1H-benzo[d][1,2,3]triazol-6-ol]: 100 to 1000 nM; `COCC(=O)N1CCN(c2ncc3c(-c4cc(C(F)(F)F)c(F)c(O)c4F)nn(C)c3n2)[C@H](Cc2ccccc2)C1` [Compound 6.03, (R)-1-(3-Benzyl-4-(3-(2,4-difluoro-3-hydroxy-5-(trifluoromethyl)phenyl)-1-methyl-1H-pyrazolo[3,4-d]pyrimidin-6-yl)piperazin-1-yl)-2-methoxyethan-1-one]: not above 100 nM; `Cc1nn(-c2cc(C(F)(F)F)c(Cl)c(O)c2F)c2ccc(N3CCN(S(C)(=O)=O)C[C@H]3Cc3ccccc3)cc12` [Compound 2.27, (R)-3-(5-(2-Benzyl-4-(methylsulfonyl)piperazin-1-yl)-3-methyl-1H-indazol-1-yl)-6-chloro-2-fluoro-5-(trifluoromethyl)phenol]: not above 100 nM. In the case of `Cn1nc(-c2cc(C(F)(F)F)c(F)c(O)c2F)c2cnc(N3CCOCC3Cc3ccncc3)nc21` (stereo not drawn) [Compound 15.08, 2,6-Difluoro-3-(1-methyl-6-(3-(pyridin-4-ylmethyl)morpholino)-1H-pyrazolo[3,4-d]pyrimidin-3-yl)-5-(trifluoromethyl)phenol] it was not above 100 nM; in that of `Cn1nc(-c2cc(C(F)(F)F)c(F)c(O)c2F)c2cnc(N3CCCCC3Cn3cncn3)nc21` (stereo not drawn) [Compound 5.34, 3-(6-(2-((1H-1,2,4-Triazol-1-yl)methyl)piperidin-1-yl)-1-methyl-1H-pyrazolo[3,4-d]pyrimidin-3-yl)-2,6-difluoro-5-(trifluoromethyl)phenol], 100 to 1000 nM.
